Earlier results in article PMC2660605 (Biochemistry, 2008).

Columns and labels:
HIV-1 integrase E92Q = HIV-1 integrase E92Q (Human immunodeficiency virus type 1 group M subtype B, UniProt P12497, E1239Q); conditions: E92Q mutant
[1] = system: HIV-1 with IN mutation E92Q
[2] = system: HIV-1 with IN mutation T66I

COc1cc2c(cc1Cc1cccc(Cl)c1F)c(=O)c(C(=O)O)cn2[C@H](CO)C(C)C [Elvitegravir, elvitegravir]
resistance level (HIV-1 integrase E92Q): 4.3 fold | reduced susceptibility [1]: 36 fold | reduced susceptibility [2]: 37 fold
